Test system: houseflies (Musca domestica)
Assay: Mortality test against houseflies by topical application method (Test Example 1)
Assay type: in vivo
Details: 1 μg/fly, female adult houseflies, 24 hours, 25° C.
Procedure: Each test compound was accurately weighed and a 1% solution and a 0.1% solution of the sample in acetone were prepared. A 1 μl portion of either of the above solutions was micropipetted onto the thoracic dorsal part of each female adult housefly (Musca domestica) under ether anaesthesia and the fly was released in a high-walled dish together with feed. The dish was covered with a metal-wire net and maintained at 25° C. After 24 hours, the test flies were inspected for deaths and the mortality (%) was calculated. Thirty test flies were used per concentration group.
With `CC(C)(CC=C(Cl)Cl)CC(=O)OCc1cccc(Oc2ccccc2)c1` [Compound [11], 3-Phenoxybenzyl β-(3,3-dichloroallyl)isovalerate] the “Mortality (%) 1 μg/fly” value was 100%. In the case of `C#CC(OC(=O)CC(C)(C)CC=C(Cl)Cl)c1cccc(Oc2ccccc2)c1` (stereo not drawn) [Compound [13], α-Ethynyl-3-phenoxybenzyl β-(3,3-dichloroallyl)isovalerate], the “Mortality (%) 1 μg/fly” value is reported as 90%. With `CC(C)=CCC(C(=O)OCc1cccc(Oc2ccccc2)c1)C(C)C` (stereo not shown) [reference compound] the “Mortality (%) 1 μg/fly” value was 0%. For `C=CCC(C(=O)OCc1cccc(Oc2ccccc2)c1)C(C)C` (stereo not shown) [reference compound], the “Mortality (%) 1 μg/fly” value was 0%. With `C=CCC1=C(C)C(OC(=O)C2C(C=C(C)C)C2(C)C)CC1=O` (stereo not shown) [Allethrin, reference compound] the “Mortality (%) 1 μg/fly” value was 50%. With `CC(C)C(CC=C(Br)Br)C(=O)OCc1cccc(Oc2ccccc2)c1` (stereo not drawn) [Compound [8], 3-Phenoxybenzyl α-(3,3-dibromoallyl)isovalerate] the “Mortality (%) 1 μg/fly” value was 100%. In the case of `CC(C)(CC=C(Cl)Cl)CC(=O)OC(C#N)c1cccc(Oc2ccccc2)c1` (stereo not drawn) [Compound [12], α-Cyano-3-phenoxybenzyl β-(3,3-dichloroallyl)isovalerate], the “Mortality (%) 1 μg/fly” value is reported as 100%. For `C#CC(OC(=O)C(CC=C(Br)Br)C(C)C)c1cccc(Oc2ccccc2)c1` (stereo not drawn) [Compound [10], α-Ethynyl-3-phenoxybenzyl α-(3,3-dibromoallyl)isovalerate], the “Mortality (%) 1 μg/fly” value was 100%.

Same assay, conditions: 10 μg/fly, female adult houseflies, 24 hours, 25° C.
For `CC(C)(CC=C(Cl)Cl)CC(=O)OCc1cccc(Oc2ccccc2)c1` [Compound [11], 3-Phenoxybenzyl β-(3,3-dichloroallyl)isovalerate], the “Mortality (%) 10 μg/fly” value was 100%. For `C#CC(OC(=O)CC(C)(C)CC=C(Cl)Cl)c1cccc(Oc2ccccc2)c1` (stereo not drawn) [Compound [13], α-Ethynyl-3-phenoxybenzyl β-(3,3-dichloroallyl)isovalerate], the “Mortality (%) 10 μg/fly” value was 100%. In the case of `C=CCC(C(=O)OCc1cccc(Oc2ccccc2)c1)C(C)C` (stereo not shown) [reference compound], the “Mortality (%) 10 μg/fly” value is reported as 0%. With `CC(C)C(CC=C(Br)Br)C(=O)OCc1cccc(Oc2ccccc2)c1` (stereo not drawn) [Compound [8], 3-Phenoxybenzyl α-(3,3-dibromoallyl)isovalerate] the “Mortality (%) 10 μg/fly” value was 100%. With `CC(C)(CC=C(Cl)Cl)CC(=O)OC(C#N)c1cccc(Oc2ccccc2)c1` (stereo not drawn) [Compound [12], α-Cyano-3-phenoxybenzyl β-(3,3-dichloroallyl)isovalerate] the “Mortality (%) 10 μg/fly” value was 100%. With `C#CC(OC(=O)C(CC=C(Br)Br)C(C)C)c1cccc(Oc2ccccc2)c1` (stereo not drawn) [Compound [10], α-Ethynyl-3-phenoxybenzyl α-(3,3-dibromoallyl)isovalerate] the “Mortality (%) 10 μg/fly” value was 100%.

Test system: not listed separately
Assay: Light stability test (Test Example 4)
Assay type: physicochemical
Details: direct sunlight between glass plates, 12° C., 4 hrs., relative to aluminum foil-covered control; read-out: Residue (%) Exposure time 4 hrs.
Procedure: Into 2.0 ml of acetone were dissolved 80 mg of each test compound. A 5 μl portion of the solution was taken and spread on a glass plate (Micro Standard Cover Glass, 18 m/m No. 1, 200 pcs, Matsunami Glass Ind., Ltd.) and the acetone was evaporated. Then, a similar glass plate was superimposed on the above plate in such a manner that the test liquid was sandwitched. The specimen was exposed to direct sunlight at an atmospheric temperature of 12° C. for a predetermined exposure time. As an unexposed control, a similar specimen was covered with an aluminum foil. The test liquid was washed away with 1.0 ml of methanol containing 0.04% of dioctyl phthalate as an internal reference and high-speed liquid chromatography was carried out on the washings to determine the residual amount of the test compound. The residue (%) was calculated with the value for the aluminum foil-covered control specimen as the standard.
Work on `CC(C)(CC=C(Cl)Cl)CC(=O)OCc1cccc(Oc2ccccc2)c1` [Compound [11], 3-Phenoxybenzyl β-(3,3-dichloroallyl)isovalerate] yielded a remaining at 4 h of 100%. In the case of `C#CC(OC(=O)CC(C)(C)CC=C(Cl)Cl)c1cccc(Oc2ccccc2)c1` (stereo not drawn) [Compound [13], α-Ethynyl-3-phenoxybenzyl β-(3,3-dichloroallyl)isovalerate], the remaining at 4 h is reported as 100%. With `C=CCC1=C(C)C(OC(=O)C2C(C=C(C)C)C2(C)C)CC1=O` (stereo not shown) [Allethrin, reference compound] the remaining at 4 h was 35%. For `CC(C)(CC=C(Cl)Cl)CC(=O)OC(C#N)c1cccc(Oc2ccccc2)c1` (stereo not drawn) [Compound [12], α-Cyano-3-phenoxybenzyl β-(3,3-dichloroallyl)isovalerate], the remaining at 4 h was 92%. For `C#CC(OC(=O)C(CC=C(Br)Br)C(C)C)c1cccc(Oc2ccccc2)c1` (stereo not drawn) [Compound [10], α-Ethynyl-3-phenoxybenzyl α-(3,3-dibromoallyl)isovalerate], the remaining at 4 h was 97%.

Same assay, conditions: direct sunlight between glass plates, 12° C., 8 hrs., relative to aluminum foil-covered control; read-out: Residue (%) Exposure time 8 hrs.
`CC(C)(CC=C(Cl)Cl)CC(=O)OCc1cccc(Oc2ccccc2)c1` [Compound [11], 3-Phenoxybenzyl β-(3,3-dichloroallyl)isovalerate] gave a remaining at 8 h of 96%. Work on `C#CC(OC(=O)CC(C)(C)CC=C(Cl)Cl)c1cccc(Oc2ccccc2)c1` (stereo not drawn) [Compound [13], α-Ethynyl-3-phenoxybenzyl β-(3,3-dichloroallyl)isovalerate] yielded a remaining at 8 h of 100%. `C=CCC1=C(C)C(OC(=O)C2C(C=C(C)C)C2(C)C)CC1=O` (stereo not shown) [Allethrin, reference compound] gave a remaining at 8 h of 17%. For `CC(C)(CC=C(Cl)Cl)CC(=O)OC(C#N)c1cccc(Oc2ccccc2)c1` (stereo not drawn) [Compound [12], α-Cyano-3-phenoxybenzyl β-(3,3-dichloroallyl)isovalerate], the remaining at 8 h was 90%. With `C#CC(OC(=O)C(CC=C(Br)Br)C(C)C)c1cccc(Oc2ccccc2)c1` (stereo not drawn) [Compound [10], α-Ethynyl-3-phenoxybenzyl α-(3,3-dibromoallyl)isovalerate] the remaining at 8 h was 97%.

Test system: not listed separately
Assay: Hydrolysis resistance test (Test Example 5)
Assay type: physicochemical
Details: acetone/water, reflux for 2 days; read-out: Residue (%)
Procedure: Into about 8 ml of acetone were dissolved 100 mg of each test compound and, then, 1.0 g of water was added to this solution to prepare a mixed solution. This mixed solution was refluxed for 2 days. After concentration to about one half of the original volume and with the addition of dioctyl phthalate as an internal reference, the residual amount of the compound was determined by high-speed liquid chromatography. The residue (%) was then calculated.
With `CC(C)(CC=C(Cl)Cl)CC(=O)OCc1cccc(Oc2ccccc2)c1` [Compound [11], 3-Phenoxybenzyl β-(3,3-dichloroallyl)isovalerate] the remaining at 48 h was greater than 90%. `CC(C)(CC=C(Cl)Cl)CC(=O)OC(C#N)c1cccc(Oc2ccccc2)c1` (stereo not drawn) [Compound [12], α-Cyano-3-phenoxybenzyl β-(3,3-dichloroallyl)isovalerate] gave a remaining at 48 h greater than 90%.

Test system: guppies
Assay: Fish toxicity test (Test Example 6)
Assay type: in vivo
Details: female guppies, 48 hours, 25° C.; concentration at which 90% or more were killed
Procedure: To 5 l of water were added 250 mg of sorpol SM-200 (registered trademark, Toho Chemical Co., Ltd.) or Tween-20 (commercial product) as an emulsifier (surfactant) as well as 2.5 ml of an acetone solution containing one of the test compounds in a predetermined concentration. The mixture was stirred well to prepare a test water. Ten female guppies from 3 to 4 months of age were released into the test water and maintained at 25° C. The concentration of the test compound at which 90% or more of the guppies were killed during the ensuring 48 hours was determined. (This concentration is referred to as LC90).
For `C=CCC1=C(C)C(OC(=O)C2C(C=C(C)C)C2(C)C)CC1=O` (stereo not shown) [Allethrin, reference compound], the LC90 was “Not more than 0.5 ppm”. With `C#CC(OC(=O)C(CC=C(Br)Br)C(C)C)c1cccc(Oc2ccccc2)c1` (stereo not drawn) [Compound [10], α-Ethynyl-3-phenoxybenzyl α-(3,3-dibromoallyl)isovalerate] the LC90 was no less than 10 ppm.

Test system: green rice leafhoppers
Assay: Spray test on rice seedlings against green rice leafhoppers (Utility Example 1)
Assay type: in vivo, green rice leafhoppers (Nephotettix cincticeps)
Details: 30% emulsifiable concentrate (Formulation Example 5) diluted 300-fold, 10 ml/pot, 24 hours
Procedure: To 30 parts of each of Compounds [1], [2], [5] to [13] and [17] to [19] was added 50 parts of xylene and 20 parts of Sorpol SM-200 (a surfactant, trademark of Toho Chemical Co., Ltd.). The mixture was stirred well and dissolved to obtain a 30% emulsifiable concentrate.
The emulsifiable concentrate prepared from Compounds [1], [2], [6], [7], [9], [10], [12] and [13] in Formulation Example 5 were each diluted 300-fold with water. Then, each of the dilutions was sprayed over rice seedlings 25 days after sowing at the rate of 10 ml/pot. The pot was covered with a wire-net and 15 green rice leafhoppers were released under the net. After 24 hours, the leafhoppers were examined for deaths. The mortality (%) was not less than 90% for each of Compounds [1], [2], [6], [7], [9], [10], [12] and [13].
With `C#CC(OC(=O)CC(C)(C)CC=C(Cl)Cl)c1cccc(Oc2ccccc2)c1` (stereo not drawn) [Compound [13], α-Ethynyl-3-phenoxybenzyl β-(3,3-dichloroallyl)isovalerate] the “Mortality (%)” value was “not less than 90%”. In the case of `CC(C)(CC=C(Cl)Cl)CC(=O)OC(C#N)c1cccc(Oc2ccccc2)c1` (stereo not drawn) [Compound [12], α-Cyano-3-phenoxybenzyl β-(3,3-dichloroallyl)isovalerate], the “Mortality (%)” value is reported as “not less than 90%”. In the case of `C#CC(OC(=O)C(CC=C(Br)Br)C(C)C)c1cccc(Oc2ccccc2)c1` (stereo not drawn) [Compound [10], α-Ethynyl-3-phenoxybenzyl α-(3,3-dibromoallyl)isovalerate], the “Mortality (%)” value is reported as “not less than 90%”.

— US4409238A, “Insecticides and insecticidal compositions” (Kuraray Co., Ltd., priority 1977, dated 1983)
